Source: BindingDB's records for PubMed 10688601 (Virginia Commonwealth University, 2000)

Tests used:
Cannabinoid receptor 2 [1] = biological target: T1, Cannabinoid receptor 2 (Rattus norvegicus, UniProt Q9QZN9)
T1 sequence (Q9QZN9 whole entry): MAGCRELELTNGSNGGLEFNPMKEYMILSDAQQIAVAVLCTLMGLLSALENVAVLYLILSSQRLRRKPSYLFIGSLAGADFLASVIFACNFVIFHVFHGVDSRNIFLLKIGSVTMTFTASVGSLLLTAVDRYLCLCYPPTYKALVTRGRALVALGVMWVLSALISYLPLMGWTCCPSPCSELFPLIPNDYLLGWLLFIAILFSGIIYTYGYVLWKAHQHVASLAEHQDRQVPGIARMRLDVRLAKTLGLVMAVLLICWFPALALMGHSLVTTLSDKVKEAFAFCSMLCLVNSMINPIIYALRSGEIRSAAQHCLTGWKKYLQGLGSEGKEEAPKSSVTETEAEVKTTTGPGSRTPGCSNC

Cannabinoid receptor 2 [2] = biological target: Cannabinoid receptor 2 (Mus musculus, UniProt P47936)
Cannabinoid receptor 2 (Mus musculus, UniProt P47936), sequence (P47936 whole entry): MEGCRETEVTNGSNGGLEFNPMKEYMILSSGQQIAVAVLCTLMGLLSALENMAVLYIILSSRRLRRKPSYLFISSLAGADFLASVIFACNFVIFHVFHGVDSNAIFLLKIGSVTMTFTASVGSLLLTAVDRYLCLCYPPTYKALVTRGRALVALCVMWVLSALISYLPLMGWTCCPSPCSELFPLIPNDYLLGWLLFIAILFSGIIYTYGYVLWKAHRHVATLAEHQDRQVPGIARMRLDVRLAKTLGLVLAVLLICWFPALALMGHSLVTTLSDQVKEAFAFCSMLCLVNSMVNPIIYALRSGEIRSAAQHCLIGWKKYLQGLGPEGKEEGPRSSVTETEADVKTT

Cannabinoid receptor 2 [3] = biological target: Cannabinoid receptor 2 (Homo sapiens, UniProt P34972)
Cannabinoid receptor 2 (Homo sapiens, UniProt P34972), sequence (P34972 whole entry): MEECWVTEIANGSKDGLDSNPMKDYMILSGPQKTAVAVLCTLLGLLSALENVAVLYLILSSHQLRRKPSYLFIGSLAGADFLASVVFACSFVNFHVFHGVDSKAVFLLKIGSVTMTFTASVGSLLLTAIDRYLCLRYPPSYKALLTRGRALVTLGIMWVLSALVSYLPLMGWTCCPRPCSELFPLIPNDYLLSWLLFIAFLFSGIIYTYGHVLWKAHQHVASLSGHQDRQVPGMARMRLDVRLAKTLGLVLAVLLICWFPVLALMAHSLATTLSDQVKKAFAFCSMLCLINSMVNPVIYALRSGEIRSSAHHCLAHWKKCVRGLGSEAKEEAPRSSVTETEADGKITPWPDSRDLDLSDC

Compound	Ki (Cannabinoid receptor 2 [1])	Ki (Cannabinoid receptor 2 [2])	Ki (Cannabinoid receptor 2 [3])
CCCn1c(C)c(C(=O)c2cccc3ccccc23)c2ccccc21	269 nM	431 nM	–
CCCCC/C=C\C/C=C\C/C=C\C/C=C\CCCC(=O)NCCO [Arachidonoyl ethanolamide]	–	1480 nM	–
CCCCCCC(C)(C)c1ccc([C@H]2C[C@@H](O)CC[C@@H]2CCCO)c(O)c1 [CP-56667 [(+)-AC],XV]	0.64 nM	0.73 nM	–
CCCCCCC(C)(C)c1ccc2c(c1)OC(C)(C)[C@@H]1CC=C(CO)C[C@@H]21 [JWH-051]	3.16 nM	0.72 nM	0.33 nM
CCCCCc1cc(O)c2c(c1)OC(C)(C)[C@@H]1CCC(C)=CC21 (stereo not given in full) [Tetrahydrocannabinol]	–	27.3 nM	–
Cc1c(C(=O)c2cccc3ccccc23)c2cccc3c2n1[C@H](CN1CCOCC1)CO3 [WIN55212-2]	–	9.46 nM	–
